Patent US9187524B2, “Broad spectrum antibiotic arylomycin analogs” (The Scripps Research Institute, priority 2010, dated 2015)
≈ marks a conversion by molar mass, not a printed value. Like-named read-outs stand apart in the source and are kept apart here.

Key:
[1] = target: T1, full-length wild type S. aureus SPase (Pro-variant) (Staphylococcus aureus, UniProt P0A070); test: biochemical; type: binding
T1 construct: Full length His-tagged S. aureus SPase proteins were expressed in and purified from BL21(DE3); His6 (N); made in house; host or cells: E. coli BL21(DE3)

[2] = target: T2, full-length P84S E. coli SPase (Ser-variant) (Escherichia coli, UniProt P00803, P84S); test: biochemical; type: binding
T2 construct: Full length His-tagged E. coli SPase proteins were expressed in BL21(DE3); His6; made in house; host or cells: E. coli BL21(DE3)

[3] = system: spsB(S29P) S. epidermidis RP62A; test: microbe, parasite or virus in culture; type: cell-based, Staphylococcus epidermidis; conditions: for MIC: Staphylococcus epidermidis
[4] = system: E. coli PAS0232 (SPase P84S); test: microbe, parasite or virus in culture; type: cell-based; conditions: Escherichia coli, read-out: MIC, E. coli PAS0232
[5] = target: T3, full-length P29S mutant S. aureus SPase (Ser-variant) (Staphylococcus aureus, UniProt P0A070, P29S); test: biochemical; type: binding
T3 construct: Full length His-tagged S. aureus SPase proteins were expressed in and purified from BL21(DE3); His6 (N); made in house; host or cells: E. coli BL21(DE3)

S. pneumoniae = test: microbe, parasite or virus in culture; type: cell-based, Streptococcus pneumoniae; conditions: for MIC: Streptococcus pneumoniae
Clostridium perfringens = test: microbe, parasite or virus in culture; type: cell-based; conditions: read-out: MIC, Clostridium perfringens
Lactobacillus plantarum = test: microbe, parasite or virus in culture; type: cell-based; conditions: Lactiplantibacillus plantarum, Table 13
S. agalactiae = test: microbe, parasite or virus in culture; type: cell-based, Streptococcus agalactiae; conditions: for MIC: Streptococcus agalactiae
C. glutamicum = test: microbe, parasite or virus in culture; type: cell-based, Corynebacterium glutamicum; conditions: for MIC: Corynebacterium glutamicum
L. lactis = test: microbe, parasite or virus in culture; type: cell-based, Lactococcus lactis
[6] = system: E. coli strains harboring the indicated amino acid at SPase residue 84; test: microbe, parasite or virus in culture; type: cell-based; conditions: Escherichia coli
Bacteroides fragilis = test: microbe, parasite or virus in culture; type: cell-based; conditions: Table 13
S. aureus COL = test: microbe, parasite or virus in culture; type: cell-based; conditions: Staphylococcus aureus, read-out: MIC, S. aureus COL
[7] = system: lepB(P84L) E. coli MG1655; test: microbe, parasite or virus in culture; type: cell-based, Escherichia coli; conditions: for MIC: Escherichia coli
[8] = system: lepB(P84L) P. aeruginosa PAO1; test: microbe, parasite or virus in culture; type: cell-based, Pseudomonas aeruginosa; conditions: for MIC: Pseudomonas aeruginosa
Clostridium difficile = test: microbe, parasite or virus in culture; type: cell-based; conditions: Clostridioides difficile, Table 13
Klebsiella pneumoniae = test: microbe, parasite or virus in culture; type: cell-based; conditions: Table 13
[9] = system: Staphylococcus aureus (different strains); type: cell-based; conditions: Table 13; multiple values: different strains
[10] = system: Staphylococcus haemolyticus; test: microbe, parasite or virus in culture; type: cell-based; conditions: Table 13
B. brevis = test: microbe, parasite or virus in culture; type: cell-based, Brevibacillus brevis; conditions: for MIC: Brevibacillus brevis
[11] = target: T4, full-length wild type E. coli SPase (Pro-variant) (Escherichia coli, UniProt P00803); test: biochemical; type: binding
T4 construct: Full length His-tagged E. coli SPase proteins were expressed in BL21(DE3); His6; made in house; host or cells: E. coli BL21(DE3)

Lactobacillus gasseri = test: microbe, parasite or virus in culture; type: cell-based; conditions: Table 13
Bacillus subtilis = test: microbe, parasite or virus in culture; type: cell-based; conditions: Table 13
Clostridium bolteae = test: microbe, parasite or virus in culture; type: cell-based; conditions: Enterocloster bolteae, Table 13
Yersinia pestis = test: microbe, parasite or virus in culture; type: cell-based; conditions: read-out: MIC, Yersinia pestis
Rhodococcus erythropolis = test: microbe, parasite or virus in culture; type: cell-based; conditions: Table 13
[12] = system: Lactobacillus acidophilus; test: microbe, parasite or virus in culture; type: cell-based; conditions: Table 13
[13] = target: T5, P84S variant of truncated E. coli SPase (Escherichia coli, UniProt P00803, P84S); test: biochemical; type: binding
T5 construct: a truncated wild type E. coli SPase that lacks the N-terminal membrane helices; made in house; host or cells: E. coli BL21(DE3)

S. aureus Rosenbach 328 = test: microbe, parasite or virus in culture; type: cell-based; conditions: Staphylococcus aureus; MRSA strain
Enterococcus faecalis = test: microbe, parasite or virus in culture; type: cell-based; conditions: Table 13
Francisella tularensis = test: microbe, parasite or virus in culture; type: cell-based
Helicobacter pylori = test: microbe, parasite or virus in culture; type: cell-based
[14] = Table 2B, SPase without resistance-conferring Pro

CCCCCCCCCCCCCCCC(=O)N(C)[C@H](CO)C(=O)N[C@H](C)C(=O)NCC(=O)N(C)[C@@H]1C(=O)N[C@@H](C)C(=O)N[C@H](C(=O)O)Cc2ccc(O)c(c2)-c2cc1ccc2O [Arylomycin C16]
Kd [1]: 1.28 ± 0.278 µM | Kd [2]: 0.0057 ± 0.001 µM | MIC ([3]; read-out: MIC, Resistant Se): 8 µg/mL (≈ 9.08 µM) | MIC ([3]; read-out: MIC, S. epidermidis PAS9001): 8 µg/mL (≈ 9.08 µM) | MIC ([3]; read-out: MIC, resistant S. epidermidis): 8 µg/mL (≈ 9.08 µM) | MIC, Resistant Se ([3]; Table 2B, SPase with resistance-conferring Pro): 8 µg/mL (≈ 9.08 µM) | fold elevated MIC compared to the wild type strain, Ser to Pro at position 29 ([3]; ~75% of selected S. epidermidis mutants): 32 fold | MIC [4]: 2 µg/mL (≈ 2.27 µM) | Kd [5]: 0.13 ± 0.053 µM | MIC (S. pneumoniae; Table 4, read-out: MIC, S. pneumoniae): 8 µg/mL (≈ 9.08 µM) | MIC (S. pneumoniae; Table 13, […], read-out: MIC, Streptococcus pneumoniae): 16 µg/mL (≈ 18.2 µM) | MIC, S. pneumoniae (S. pneumoniae; Table 14): 8 µg/mL (≈ 9.08 µM) | MIC (Clostridium perfringens): > 16 µg/mL | MIC (Lactobacillus plantarum): > 128 µg/mL | MIC (S. agalactiae; Table 4, read-out: MIC, S. agalactiae): > 128 µg/mL | MIC (S. agalactiae; Table 13, […], read-out: MIC, Streptococcus agalactiae): > 128 µg/mL | MIC, S. agalactiae (S. agalactiae; Table 14): >128 µg/mL | MIC (C. glutamicum; Table 4, read-out: MIC, C. glutamicum): 2 µg/mL (≈ 2.27 µM) | MIC (C. glutamicum; text b755, read-out: MIC, Corynebacterium glutamicum): 2 µg/mL (≈ 2.27 µM) | MIC, Corynebacterium glutamicum (C. glutamicum; Table 13, […]): 2 µg/mL (≈ 2.27 µM) | MIC (L. lactis; Lactococcus lactis, Table 4): 16 µg/mL (≈ 18.2 µM) | MIC, Lactococcus lactis (L. lactis; Table 13, multiple values: different strains): 16 µg/mL (≈ 18.2 µM) | sensitivity of Lactococcus lactis spp. cremonis (L. lactis; one SPase with Leu29): sensitive | sensitivity of Lactococcus lactis spp. lactii (L. lactis; single SPase with Leu29): resistant | MIC ([6]; read-out: MIC, E. coli SPase residue 84 His variant): 4 µg/mL (≈ 4.54 µM) | MIC ([6]; read-out: MIC, E. coli SPase residue 84 Phe or His variant): 2 µg/mL (≈ 2.27 µM) | MIC ([6]; read-out: MIC, E. coli with Pro at SPase residue 84): > 256 µg/mL | MIC ([6]; read-out: MIC, E. coli with any other amino acid at SPase residue 84): ≤ 16 µg/mL | MIC (Bacteroides fragilis): > 16 µg/mL | MIC (S. aureus COL): 12 µg/mL (≈ 13.6 µM) | MIC ([7]; MG1655, read-out: MIC, E. coli P84L): 2 µg/mL (≈ 2.27 µM) | MIC ([7]; MG1655, read-out: MIC, Sensitive Ec): 0.5 µg/mL (≈ 0.567 µM) | MIC, Sensitive Ec [7, 14]: 0.5 µg/mL (≈ 0.567 µM) | MIC ([8]; PAO1, read-out: MIC, P. aeruginosa P84L): 4 µg/mL (≈ 4.54 µM) | MIC ([8]; PAO1, read-out: MIC, Sensitive Pa): 8 µg/mL (≈ 9.08 µM) | MIC, Sensitive Pa [8, 14]: 8 µg/mL (≈ 9.08 µM) | MIC (Clostridium difficile): > 16 µg/mL | MIC (Klebsiella pneumoniae): > 128 µg/mL | MIC, Staphylococcus aureus [9]: 16 to 32 µg/mL | MIC [10]: 2 µg/mL (≈ 2.27 µM) | MIC (B. brevis; Table 4, read-out: MIC, B. brevis): > 64 µg/mL | MIC (B. brevis; Table 13, […], read-out: MIC, Brevibacillus brevis): > 64 µg/mL | activity against B. brevis (B. brevis; MHBII broth and nutrient broth): no activity | Kd [11]: 0.06 ± 0.016 µM | MIC (Lactobacillus gasseri): > 128 µg/mL | MIC (Bacillus subtilis): > 128 µg/mL | MIC (Clostridium bolteae): > 16 µg/mL | MIC (Yersinia pestis): 4 µg/mL (≈ 4.54 µM) | MIC (Rhodococcus erythropolis): 16 µg/mL (≈ 18.2 µM) | MIC [12]: > 128 µg/mL | Kd [13]: 0.039 ± 0.015 µM | MIC (S. aureus Rosenbach 328): 25 µg/mL (≈ 28.4 µM) | MIC (Enterococcus faecalis): > 64 µg/mL | MIC (Francisella tularensis; read-out: MIC, Francisella tularensis clinical isolate): 32 µg/mL (≈ 36.3 µM) | MIC (Francisella tularensis; read-out: MIC, Francisella tularensis clinical isolates, 8 of nineteen clinical isolates): 4 to 16 µg/mL (≈ 4.54 to 18.2 µM) | MIC (Francisella tularensis; read-out: MIC, Francisella tularensis clinical isolates, remainder of nineteen clinical isolates): > 64 µg/mL | MIC (Helicobacter pylori; Table 13, […], read-out: MIC, Helicobacter pylori): 4 µg/mL (≈ 4.54 µM) | MIC (Helicobacter pylori; read-out: MIC, H. pylori): 4 µg/mL (≈ 4.54 µM)
